Ends that are not written are not given here.
Tested on: MRSA
Assay: FITC assay to monitor cellular uptake of peptides (fluorescence microscopy)
Format: cell-based, Staphylococcus aureus
Details: 2 hours post-treatment with 1 μM of FITC-peptide agents
Description: An FITC assay may be utilized, to monitor cellular uptake of peptides. Peptides were conjugated to fluorescein isothiocyanate (FITC) to monitor uptake using florescence microscopy. FIG. 2A-2B show assay results for several peptides as tested in MRSA (FIG. 2A) and AcB (FIG. 2B) (fluorescent overlays 2 hours post-treatment with 1 μM of FITC peptide agents, scale bar=100 μm).
An FITC assay was utilized to monitor cellular uptake of peptides. Peptides were conjugated to fluorescein isothiocyanate (FITC) to monitor uptake using, florescence microscopy.

| Sequence | cellular entry of FITC-peptide |
| --- | --- |
| GIGKWLHSAKKFGKAFVGEIMNS (also: FITC label, site not given here) [Magainin-FITC, Magainin 2 cell penetrating peptide conjugated to fluorescein isothiocyanate (FITC)] | effective for entry into MRSA |
| KFFKFFKFFK (also: FITC label, site not given here) [cell penetrating peptide, tested conjugated to FITC] | effective for cellular entry |
| RFFRFFRFFR (also: FITC label, site not given here) [cell penetrating peptide, tested conjugated to FITC] | effective for cellular entry |

— patent US9909123B2, “Antisense molecules for treatment of Staphylococcus aureus infection” (priority 2013, dated 2018)
